Measurements reported in PMC10977697 (PLOS ONE, 2024).
Bridges are numbered along the chain shown (N, C = ends). Where no end group is shown, it is not given here.

Legend:
PCSK9ΔCRD (PCSK9dCRD) = assay type: binding, human; conditions: for S/N: ratio of signal for target protein over BSA background; for ELISA: spot phage ELISA signal, DCP displayed on M13 p8
Her3-Fc = target: T1, Her3-Fc (Homo sapiens, UniProt P21860); test: Spot phage ELISA, Her3-Fc; assay type: binding; conditions: for S/N: ratio of signal for target protein over BSA background; for ELISA: spot phage ELISA signal, DCP displayed on M13 p8
T1 construct: purchased R&D 348-RB

HGFA = test: Spot phage ELISA, HGFA; assay type: binding, human; conditions: for S/N: ratio of signal for target protein over BSA background, S/N > 2 positive; for ELISA: spot phage ELISA signal, DCP displayed on M13 p8, phage supernatant 1:3 in PBT, anti-M13-HRP, TMB
CD28-Fc = test: Spot phage ELISA, CD28-Fc; assay type: binding; conditions: for ELISA: spot phage ELISA signal of phage-displayed DCP clone on CD28-Fc; for S/N: spot phage ELISA signal-to-noise on CD28-Fc

T1 sequence (P21860 20-643 limits assumed): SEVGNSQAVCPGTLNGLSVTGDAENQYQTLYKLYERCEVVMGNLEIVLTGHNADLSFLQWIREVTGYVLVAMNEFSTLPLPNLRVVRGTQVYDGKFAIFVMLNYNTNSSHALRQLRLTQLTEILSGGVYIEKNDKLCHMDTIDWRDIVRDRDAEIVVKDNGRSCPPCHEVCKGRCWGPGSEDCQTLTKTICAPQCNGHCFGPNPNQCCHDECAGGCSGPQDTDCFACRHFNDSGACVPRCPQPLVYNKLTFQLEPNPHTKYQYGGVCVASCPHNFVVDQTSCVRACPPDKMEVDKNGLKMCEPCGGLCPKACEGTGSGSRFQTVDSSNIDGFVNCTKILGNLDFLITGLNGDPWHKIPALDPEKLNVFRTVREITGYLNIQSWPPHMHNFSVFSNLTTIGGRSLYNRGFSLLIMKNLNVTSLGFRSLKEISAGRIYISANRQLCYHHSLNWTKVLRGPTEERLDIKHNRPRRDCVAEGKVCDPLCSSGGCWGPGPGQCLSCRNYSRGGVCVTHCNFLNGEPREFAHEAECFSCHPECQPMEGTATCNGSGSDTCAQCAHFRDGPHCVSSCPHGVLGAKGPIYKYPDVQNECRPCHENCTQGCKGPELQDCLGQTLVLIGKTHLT

## AFDCLGQCGRCDFHKLQCVYKTWQDYQYCNSSCTR (also: bicyclic or more (positions not given here)) [PCSK9dCRD AVR9 53]
PCSK9ΔCRD (PCSK9dCRD)
  S/N: 36.1
  ELISA: 2.49

## AFDCLGQCGRCDFHKLQCVYQDWAHYVYCNSSCTR (also: bicyclic or more (positions not given here)) [PCSK9dCRD AVR9 44]
PCSK9ΔCRD (PCSK9dCRD)
  S/N: 27.7
  ELISA: 2.19

## AFDCLGQCGRCDFHKLQCVYQSWDHYQYCNSSCTR (also: bicyclic or more (positions not given here)) [PCSK9dCRD AVR9 14]
PCSK9ΔCRD (PCSK9dCRD)
  S/N: 30.5
  ELISA: 2.41

## AFDCLGQCGRCDFHKLQCVYRSWAHFQYCNSSCTR (also: bicyclic or more (positions not given here)) [PCSK9dCRD AVR9 11]
PCSK9ΔCRD (PCSK9dCRD)
  S/N: 18.5
  ELISA: 2.52

## AFDCLGQCGRCDFHKLQCVYSSWAHYQYCNSSCTR (also: bicyclic or more (positions not given here)) [PCSK9dCRD AVR9 57]
PCSK9ΔCRD (PCSK9dCRD)
  S/N: 33.9
  ELISA: 2.57

## AFDCLGQCGRCDFHKLQCVYTSWESYQYCNSSCTR (also: bicyclic or more (positions not given here)) [PCSK9dCRD AVR9 16]
PCSK9ΔCRD (PCSK9dCRD)
  S/N: 19.6
  ELISA: 1.80

## AFDCLGQCGRCDFHKLQCVYTSWQHYQYCNSSCTR (also: bicyclic or more (positions not given here)) [PCSK9dCRD AVR9 58]
PCSK9ΔCRD (PCSK9dCRD)
  S/N: 35.3
  ELISA: 2.67

## AFDCLGQCVPYVLSPYCNSSCTR [Her3-Fc AVR9 6]
Her3-Fc
  S/N: 24.2
  ELISA: 1.56

## GCAESQHWWLWGCKQDSDCLAGCVCGPNGFCG (also: bicyclic or more (positions not given here)) [HGFA EET I-II 31]
HGFA
  S/N: 22.4
  ELISA: 1.95

## GCALSIHWWLWPCKQDSDCLAGCVCGPNGFCG (also: bicyclic or more (positions not given here)) [HGFA EET I-II 20]
HGFA
  S/N: 13.5
  ELISA: 1.93

## GCDEYWYECKQDSDCLAGCVCLIWGHCG (disulfide (positions not given here)) [CD28-Fc EET I-II 7]
CD28-Fc
  ELISA: 1.32
  S/N: 20.3

## GCDLDLDWIWHECKQDSDCLAGCVCHQGNFCG (also: bicyclic or more (positions not given here)) [Her3-Fc EET I-II 9]
Her3-Fc
  S/N: 25.7
  ELISA: 1.44

## GCEWDWWFDQWICKQDSDCLAGCVCGPNGFCG (also: bicyclic or more (positions not given here)) [HGFA EET I-II 16]
HGFA
  S/N: 14.5
  ELISA: 1.92

## GCFENWATCKQDSDCLAGCVCKIWKRCG (disulfide (positions not given here)) [CD28-Fc EET I-II 5]
CD28-Fc
  ELISA: 1.34
  S/N: 19.6

## GCFWKRVHLCKQDSDCLAGCVCGWEASCG (disulfide (positions not given here)) [CD28-Fc EET I-II 15]
CD28-Fc
  ELISA: 1.64
  S/N: 31.6

## GCHPDPWWCKQDSDCLARWCG [Her3-Fc EET I-II 37]
Her3-Fc
  S/N: 43.4
  ELISA: 3.17

## GCHYNWDQCKQDSDCLAGCVCLIWYRCD (disulfide (positions not given here)) [CD28-Fc EET I-II 12]
CD28-Fc
  ELISA: 1.06
  S/N: 20.1

## GCISKWFSCKQDSDCLAGCVCLLWQDCG (also: bicyclic or more (positions not given here)) [Her3-Fc EET I-II 67]
Her3-Fc
  S/N: 20.1
  ELISA: 1.54

## GCIWGWAACKQDSDCLAGCVCQIWGRCG (disulfide (positions not given here)) [CD28-Fc EET I-II 3]
CD28-Fc
  ELISA: 1.58
  S/N: 10.7

## GCMEHWEYCKQDSDCLAGCVCVIWGRCG (disulfide (positions not given here)) [CD28-Fc EET I-II 13]
CD28-Fc
  ELISA: 1.52
  S/N: 27.2

## GCMMYWDECKQDSDCLAGCVCLIWNRCG (disulfide (positions not given here)) [CD28-Fc EET I-II 4]
CD28-Fc
  ELISA: 1.85
  S/N: 34.2

## GCMNWGTFCKQDSDCLAGCVCALFGVCG (also: bicyclic or more (positions not given here)) [Her3-Fc EET I-II 66]
Her3-Fc
  S/N: 27.8
  ELISA: 1.59

## GCMWDWDACKQDSDCLAGCVCSIWGRCG (disulfide (positions not given here)) [CD28-Fc EET I-II 2]
CD28-Fc
  ELISA: 1.29
  S/N: 10.9

## GCMYHWEACKQDSDCLAGCICHIWIPCG (disulfide (positions not given here)) [CD28-Fc EET I-II 8]
CD28-Fc
  ELISA: 1.07
  S/N: 16.4

## GCPRILIRCKQDSDCLAGCVCSGPPPCG (also: bicyclic or more (positions not given here)) [Her3-Fc EET I-II 47]
Her3-Fc
  S/N: 22.4
  ELISA: 1.64

## GCPRILMRCKQDSDCLAGCVCAGPPPCG (also: bicyclic or more (positions not given here)) [Her3-Fc EET I-II 42]
Her3-Fc
  S/N: 23.8
  ELISA: 1.52

## GCPRILMRCKQDSDCLAGCVCSGPPPCG (also: bicyclic or more (positions not given here)) [Her3-Fc EET I-II 7]
Her3-Fc
  S/N: 24.5
  ELISA: 1.60

## GCPRILMRCKQDSDCLSGCVCSGPPPCG (also: bicyclic or more (positions not given here)) [Her3-Fc EET I-II 24]
Her3-Fc
  S/N: 16.6
  ELISA: 1.61

## GCQLHYSQQGCKQYSULSGLVLWYTIHRLLRWRI [Her3-Fc EET I-II 4]
Her3-Fc
  S/N: 21.1
  ELISA: 1.45

## GCQSHYSHQGCKQDSDCLAGYCG [Her3-Fc EET I-II 11]
Her3-Fc
  S/N: 26.1
  ELISA: 1.65

## GCQWDWWMEEWWCKQDSDCLAGCVCGPNGFCG (also: bicyclic or more (positions not given here)) [HGFA EET I-II 14]
HGFA
  S/N: 15.2
  ELISA: 1.75

## GCQWIAHWWLWDCKQDSDCLAGCVCGPNGFCG (also: bicyclic or more (positions not given here)) [HGFA EET I-II 86]
HGFA
  S/N: 22.6
  ELISA: 1.92

## GCTQDWKTCKQDSDCLAGCVCVIWGRCG (disulfide (positions not given here)) [CD28-Fc EET I-II 6]
CD28-Fc
  ELISA: 1.44
  S/N: 21.2

## GCVWNWVECKQDSDCLAGCVCYIWGRCG (disulfide (positions not given here)) [CD28-Fc EET I-II 1]
CD28-Fc
  ELISA: 1.59
  S/N: 15.4

## GCWEKRKMCKQDSDCLAGCVCGWEISCG (disulfide (positions not given here)) [CD28-Fc EET I-II 14]
CD28-Fc
  ELISA: 1.35
  S/N: 22.9

## GCWSSEKGLACKQDSDCLAGCVCDQTGSCG (also: bicyclic or more (positions not given here)) [Her3-Fc EET I-II 52]
Her3-Fc
  S/N: 23.0
  ELISA: 1.65

## GCYLKRRHCKQDSDCLAGCVCGWEHTCG (disulfide (positions not given here)) [CD28-Fc EET I-II 9]
CD28-Fc
  ELISA: 1.52
  S/N: 23.4

## GCYQKRVQCKQDSDCLAGCVCGWEAQCG (disulfide (positions not given here)) [CD28-Fc EET I-II 10]
CD28-Fc
  ELISA: 1.41
  S/N: 15.0

## GCYTFWHKCKQDSDCLAGCVCLIWGRCG (disulfide (positions not given here)) [CD28-Fc EET I-II 11]
CD28-Fc
  ELISA: 1.50
  S/N: 19.0

## GCYWDSWFDEWVCKQDSDCLAGCVCGPNGFCG (also: bicyclic or more (positions not given here)) [HGFA EET I-II 59]
HGFA
  S/N: 13.4
  ELISA: 1.67

## GCYWKRQFKCKQDSYCLPGCVCGWEMSCG (disulfide (positions not given here)) [CD28-Fc EET I-II 16]
CD28-Fc
  ELISA: 1.80
  S/N: 8.4

## GPSHSQYCHCGGIGYVGGHYCSCTNYQDEWGFESRCLPGAS [HGFA CBD 9]
HGFA
  S/N: 25.0
  ELISA: 1.80

## GPTQSVGGNCGGIGYSGPTVCASGTTCQVLSPNFSICLPGAS (also: bicyclic or more (positions not given here)) [PCSK9dCRD CBD 49]
PCSK9ΔCRD (PCSK9dCRD)
  S/N: 37.1
  ELISA: 2.38

## GPTQSVGGVCGGIGYSGPTVCASGTTCQVLSPKTSICLPGAS (also: bicyclic or more (positions not given here)) [PCSK9dCRD CBD 40]
PCSK9ΔCRD (PCSK9dCRD)
  S/N: 27.5
  ELISA: 2.39

## GPTQSWQGRCGGIGYSGPTVCASGTTCQVLTPYWSECLPGAS (disulfide 10-27, 21-37 (inferred)) [Her3-Fc_CBD1]
Her3-Fc
  S/N: 20.2
Her3-Fc; listed as Her3-Fc CBD 3
  ELISA: 1.65
